Source: ChEMBL document CHEMBL1156312, “Comparison of the antiplasmodial and falcipain-2 inhibitory activity of beta-amino alcohol thiolactone-chalcone and isatin-chalcone hybrids” (Bioorg Med Chem Lett, 2010)

Columns and labels:
[1] = Inhibition of recombinant Plasmodium falciparum falcipain-2
Plasmodium falciparum = test: Antimicrobial activity against chloroquine-resistant Plasmodium falciparum W2; format: functional, organism-based

| Compound | IC50 [1] [µM] | IC50 (Plasmodium falciparum) [µM] |
| --- | --- | --- |
| COc1ccc(/C=C/C(=O)c2ccc(OCc3cn(CC(O)COC4=C(C)C(=O)SC4C)nn3)cc2)c(OC)c1OC (stereo not given) | 0.81 | > 100 |
| COc1ccc(C(=O)/C=C/c2ccccc2OCc2cn(CC(O)CN3C(=O)C(=O)c4cc(Cl)ccc43)nn2)cc1 (stereo not given) | > 20 | 25.4 |
| COc1ccc(C(=O)/C=C/c2ccccc2OCc2cn(CC(O)CN3C(=O)C(=O)c4cc(Cl)ccc43)nn2)c(OC)c1 (stereo not given) | > 20 | 15.6 |
| COc1ccc(C(=O)/C=C/c2ccccc2OCc2cn(CC(O)CN3C(=O)C(=O)c4cc(Cl)ccc43)nn2)c(OC)c1OC (stereo not given) | 6.1 | 90.5 |
| COc1ccc(C(=O)/C=C/c2cccc(OCc3cn(CC(O)CN4C(=O)C(=O)c5cc(Cl)ccc54)nn3)c2)cc1 (stereo not given) | 5.75 | 10.3 |
| COc1ccc(C(=O)/C=C/c2cccc(OCc3cn(CC(O)CN4C(=O)C(=O)c5cc(Cl)ccc54)nn3)c2)c(OC)c1 (stereo not given) | 3.17 | 6.8 |
| COc1ccc(C(=O)/C=C/c2cccc(OCc3cn(CC(O)CN4C(=O)C(=O)c5cc(Cl)ccc54)nn3)c2)c(OC)c1OC (stereo not given) | 2.18 | 11.5 |
| COc1ccc(C(=O)/C=C/c2ccc(OCc3cn(CC(O)CN4C(=O)C(=O)c5cc(Cl)ccc54)nn3)cc2)cc1 (stereo not given) | 10.6 | 10.8 |
| COc1ccc(C(=O)/C=C/c2ccc(OCc3cn(CC(O)CN4C(=O)C(=O)c5cc(Cl)ccc54)nn3)cc2)c(OC)c1 (stereo not given) | 9.73 |  |
| COc1ccc(C(=O)/C=C/c2ccc(OCc3cn(CC(O)CN4C(=O)C(=O)c5cc(Cl)ccc54)nn3)cc2)c(OC)c1OC (stereo not given) | 11 | 16.6 |
| COc1ccc(/C=C/C(=O)c2ccccc2OCc2cn(CC(O)CN3C(=O)C(=O)c4cc(Cl)ccc43)nn2)cc1 (stereo not given) | 7.79 | 16 |
| COc1ccc(/C=C/C(=O)c2ccccc2OCc2cn(CC(O)CN3C(=O)C(=O)c4cc(Cl)ccc43)nn2)c(OC)c1 (stereo not given) | 2.09 | 15 |
| COc1ccc(/C=C/C(=O)c2ccccc2OCc2cn(CC(O)CN3C(=O)C(=O)c4cc(Cl)ccc43)nn2)c(OC)c1OC (stereo not given) | 6.21 | 15.3 |
| COc1ccc(/C=C/C(=O)c2cccc(OCc3cn(CC(O)CN4C(=O)C(=O)c5cc(Cl)ccc54)nn3)c2)cc1 (stereo not given) | 3.57 | 9.91 |
| COc1ccc(/C=C/C(=O)c2cccc(OCc3cn(CC(O)CN4C(=O)C(=O)c5cc(Cl)ccc54)nn3)c2)c(OC)c1 (stereo not given) | 2.95 | 10.6 |
| COc1ccc(/C=C/C(=O)c2cccc(OCc3cn(CC(O)CN4C(=O)C(=O)c5cc(Cl)ccc54)nn3)c2)c(OC)c1OC (stereo not given) | 2.57 | 16.7 |
| COc1ccc(/C=C/C(=O)c2ccc(OCc3cn(CC(O)CN4C(=O)C(=O)c5cc(Cl)ccc54)nn3)cc2)cc1 (stereo not given) | 14.9 | 15.9 |
| COc1ccc(/C=C/C(=O)c2ccc(OCc3cn(CC(O)CN4C(=O)C(=O)c5cc(Cl)ccc54)nn3)cc2)c(OC)c1 (stereo not given) | 14.5 | 18.3 |
| COc1ccc(/C=C/C(=O)c2ccc(OCc3cn(CC(O)CN4C(=O)C(=O)c5cc(Cl)ccc54)nn3)cc2)c(OC)c1OC (stereo not given) | > 20 | 25.1 |
| COc1ccc(/C=C/C(=O)c2ccccc2OCc2cn(CC(O)COC3=C(C)C(=O)SC3C)nn2)cc1 (stereo not given) | 2.64 | > 100 |
| COc1ccc(C(=O)/C=C/c2ccccc2OCc2cn(CC(O)COC3=C(C)C(=O)SC3C)nn2)cc1 (stereo not given) | 2.31 | > 100 |

| Compound | IC50 [1] [µM] | IC50 (Plasmodium falciparum) [µM] |
| --- | --- | --- |
| COc1ccc(C(=O)/C=C/c2cccc(OCc3cn(CC(O)COC4=C(C)C(=O)SC4C)nn3)c2)cc1 (stereo not given) | 2.43 | > 100 |
| COc1ccc(C(=O)/C=C/c2cccc(OCc3cn(CC(O)COC4=C(C)C(=O)SC4C)nn3)c2)c(OC)c1 (stereo not given) | 1.64 | > 100 |
| COc1ccc(C(=O)/C=C/c2ccc(OCc3cn(CC(O)COC4=C(C)C(=O)SC4C)nn3)cc2)cc1 (stereo not given) | 3.12 | > 100 |
| COc1ccc(C(=O)/C=C/c2ccccc2OCc2cn(CC(O)COC3=C(C)C(=O)SC3C)nn2)c(OC)c1 (stereo not given) | 2.08 | > 100 |
| COc1ccc(C(=O)/C=C/c2ccc(OCc3cn(CC(O)COC4=C(C)C(=O)SC4C)nn3)cc2)c(OC)c1 (stereo not given) | 1.54 | > 100 |
| COc1ccc(C(=O)/C=C/c2ccccc2OCc2cn(CC(O)COC3=C(C)C(=O)SC3C)nn2)c(OC)c1OC (stereo not given) | 1.14 | > 100 |
| COc1ccc(C(=O)/C=C/c2cccc(OCc3cn(CC(O)COC4=C(C)C(=O)SC4C)nn3)c2)c(OC)c1OC (stereo not given) | 2 | > 100 |
| CC1=C(OCC(O)CN=[N+]=[N-])C(C)SC1=O (stereo not given) | > 20 | > 100 |
| COC1(OC)C(=O)N(CC(O)CN=[N+]=[N-])c2ccc(Cl)cc21 (stereo not given) | > 20 | > 100 |
| COc1ccc(/C=C/C(=O)c2ccccc2OCc2cn(CC(O)COC3=C(C)C(=O)SC3C)nn2)c(OC)c1 (stereo not given) | 2.14 | > 100 |
| COc1ccc(/C=C/C(=O)c2cccc(OCc3cn(CC(O)COC4=C(C)C(=O)SC4C)nn3)c2)cc1 (stereo not given) | 3.69 | > 100 |
| COc1ccc(/C=C/C(=O)c2cccc(OCc3cn(CC(O)COC4=C(C)C(=O)SC4C)nn3)c2)c(OC)c1 (stereo not given) | 3.51 | > 100 |
| COc1ccc(/C=C/C(=O)c2ccc(OCc3cn(CC(O)COC4=C(C)C(=O)SC4C)nn3)cc2)cc1 (stereo not given) | 6.08 | > 100 |
| COc1ccc(C(=O)/C=C/c2ccc(OCc3cn(CC(O)COC4=C(C)C(=O)SC4C)nn3)cc2)c(OC)c1OC (stereo not given) | 5.04 | > 100 |
| COc1ccc(/C=C/C(=O)c2ccc(OCc3cn(CC(O)COC4=C(C)C(=O)SC4C)nn3)cc2)c(OC)c1 (stereo not given) | 3.1 | 28.5 |
| COc1ccc(/C=C/C(=O)c2cccc(OCc3cn(CC(O)COC4=C(C)C(=O)SC4C)nn3)c2)c(OC)c1OC (stereo not given) | 0.68 | > 100 |
| CCN(CC)CCCC(C)Nc1ccnc2cc(Cl)ccc12 (stereo not given) [CHLOROQUINE] | 0.0694 |  |
| O=C1Nc2ccccc2C1=O [ISATIN] | > 20 | > 100 |
| C=C/C(C)=C/[C@@]1(C)SC(=O)C(C)=C1O [THIOLACTOMYCIN] | > 20 | > 100 |
| CC1=C(O)SC(C)C1=O (stereo not given) [THIOLACTONE] | > 20 | > 100 |
